# Test system: not listed separately
# Test: Cardiac side effects: QTc interval of the EKG in anesthetized guinea pigs
# Type: in vivo
# Settings: guinea pig, intravenous infusion over 30 min
# Protocol: Male guinea pigs (450-600 g) are anesthetized with freshly prepared dialurethane sodium. The jugular vein is catheterized for iv administration of test drugs and the trachea is exposed and cannulated. Subdermal electrodes are positioned for Lead II electrocardiogram recording, monitored on a Grass Polygraph recorder, set at a paper speed of 50 mm/sec. The animals are allowed to stabilize for 30 minute after completion of surgery, and three baseline EKG recordings are then made at 10-minute intervals. The animals are then given a dose of the test compound or vehicle as an intravenous infusion over 30 min. EKG recordings are used to determine QT intervals and heart rates. To compensate for variations in heart rates, QTc intervals are calculated from QT- and RR-intervals as known to those skilled in the art. Prolongation of QTc is indicative of a prolonged action potential, caused by an inhibition of the delayed rectifier potassium channel. Prolongation of QTc is the known cause of Torsades de Pointes ventricular fibrillation by drugs such as terfenadine, astemizole and terodiline (now withdrawn from the market).
row,Structure (SMILES),prolongation of the QTc-interval of the EKG
1,"CC(C)N(CC[C@H](c1ccccc1)c1cc(CO)ccc1O)C(C)C [5-HM, R(+)-N,N-diisopropyl-3-(2-hydroxy-5-(hydroxymethyl)phenyl)-3-phenylpropylamine]",did not cause a prolongation of the QTc interval
2,"Cc1ccc(O)c([C@H](CCNC(C)C)c2ccccc2)c1 [DES-TOLT, R(+)-N-isopropyl-3-(2-hydroxy-5-methylphenyl)-3-phenylpropylamine]",did not cause a prolongation of the QTc interval
3,"CC(C)N(CCC(c1ccccc1)c1cc(CO)ccc1O)C(C)C (centres unmarked) [RS-5-HM, RS-N,N-diisopropyl-3-(2-hydroxy-5-(hydroxymethyl)phenyl)-3-phenylpropylamine]",did not cause a prolongation of the QTc interval
4,"Cc1ccc(O)c(C(CCNC(C)C)c2ccccc2)c1 (centres unmarked) [RS-DES-TOLT, RS-N-Isopropyl-3-(2-hydroxy-5-methylphenyl)-3-phenylpropylamine]",did not cause a prolongation of the QTc interval
5,"Cc1ccc(O)c(C(CCN(C(C)C)C(C)C)c2ccccc2)c1 (centres unmarked) [RS-TOLT, RS-N,N-diisopropyl-3-(2-hydroxy-5-methylphenyl)-3-phenylpropylamine, reference compound]",cause a prolongation of the QTc-interval
6,"Cc1ccc(O)c([C@H](CCN(C(C)C)C(C)C)c2ccccc2)c1 [TOLT, R(+)-N,N-diisopropyl-3-(2-hydroxy-5-methylphenyl)-3-phenylpropylamine]",cause a prolongation of the QTc-interval

# Test system: muscarinic receptors
# Test: Functional characterization of antimuscarinic activities on smooth muscle strips
# Parameters: species or system guinea pig
# Settings: pharmacological studies in comparison with tolterodine
# Protocol: Experiments are performed using methods similar to those described by Kachur et al, 1988 (R and S enantiomers of oxybutynin: Pharmacological effects in guinea pig bladder and intestine. J Pharmacol Exp Ther 247: 867-872) and Noronha-Blob and Kachur, 1991 (Enantiomers of Oxybutynin: In vitro pharmacological characterization at M1, M2 and M3 muscarinic receptors and in vivo effects on urinary bladder contraction, mydriasis and salivary secretion in guinea pigs. J Pharmacol Exp Ther 256: 562-567). Strips of tissue (approximately 10 mm long and 1.5 mm wide) are removed from the body of the urinary bladder of male guinea pigs weighing 400-600 g. […] Contractions are recorded with transducers on a polygraph.
# The present series of experiments focuses on the anticholinergic actions of DES-TOLT, and RS-DES-TOLT and their metabolites. In these experiments, in order to assess the viability of each tissue and to serve as a frame of reference, contractions of each strip of tissue are recorded initially in response to exposure to tissue medium in which NaCl is replaced by KCl to yield a concentration of 137.7 mM KCl in the medium. This is followed by return to the standard medium, and then by exposures to progressively in creasing concentrations of carbachol, with separate exposures to each concentration only until the peak response has been recorded. […]
row,Structure (SMILES),antimuscarinic activities
1,"CC(C)NCC[C@H](c1ccccc1)c1cc(CO)ccc1O [5-HM-DES-TOLT, R(+)-N-Isopropyl-3-(2-hydroxy-5-(hydroxymethyl)phenyl)-3-phenylpropylamine]",potent antimuscarinic activities
2,"Cc1ccc(O)c([C@H](CCNC(C)C)c2ccccc2)c1 [DES-TOLT, R(+)-N-isopropyl-3-(2-hydroxy-5-methylphenyl)-3-phenylpropylamine]",potent antimuscarinic activities
